Experimental data reported in patent US20230210999A1, “TARGETED PROTEASE DEGRADATION (TED) PLATFORM” (EUBULUS BIOTHERAPEUTICS INC., priority 2020, published 2023).

Legend:
Type in all cases: cell-based, human
MV4;11 cells = experiment: Cell proliferation experiment (Alamar blue, 72 h), MV4;11; settings: Homo sapiens, MV4-11, MV4;11 cells; read-out: Inhibitory activity IC50 on MV4;11
How it was run: (§1)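 IC50 values derive from a four-parameter logistic fit of Alamar blue fluorescence. Cells in logarithmic growth, plated in 96-well format, are treated for 72 h with compound diluted 5-fold serially, two wells per concentration.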

NCIH82 cells = experiment: Cell proliferation experiment, NCI-H82; settings: Homo sapiens, NCI-H82, NCI-H82 cells; read-out: Inhibitory activity IC50 on NCI-H82
How it was run: as §1

MDA-MB-231 cells = experiment: Cell proliferation experiment, MDA-MB-231; settings: Homo sapiens, MDA-MB-231, MDA-MB-231 cells; read-out: Inhibitory activity IC50 on MDA-MB-231
How it was run: as §1

PC-3 = experiment: Cell proliferation experiment, PC-3; settings: Homo sapiens, PC-3, PC-3 cells; read-out: Inhibitory activity IC50 on PC-3
How it was run: as §1

Daudi cells = experiment: Cell proliferation experiment, Daudi; settings: Homo sapiens, Daudi, Daudi cells; read-out: Inhibitory activity IC50 on Daudi
How it was run: as §1

| IC50 (MV4;11 cells) [nM] | IC50 (NCIH82 cells) [nM] | IC50 (MDA-MB-231 cells) [nM] | IC50 (PC-3) [nM] | IC50 (Daudi cells) [nM] | SMILES |
| --- | --- | --- | --- | --- | --- |
| 10 to 100 | > 1000 | > 1000 | 10 to 100 |  | CNC(=O)c1ncccc1Nc1nc(Nc2ccc(N3CCN(C(=O)N[C@H]4CC[C@H](NCCOCCC#Cc5cccc6c5CN(C5CCC(=O)NC5=O)C6=O)CC4)CC3)cc2)ncc1C#N (stereo partly shown) [UB-181124] |
| 10 to 100 | > 1000 | > 1000 | 100 to 1000 |  | CNC(=O)c1ccccc1Nc1nc(Nc2ccc(N3CCN(C(=O)NC4CCC(NCCOCCC#Cc5ccc6c(c5)CN(C5CCC(=O)NC5=O)C6=O)CC4)CC3)cc2)ncc1C#N (stereo not shown) [UB-181125] |
| < 10 | > 1000 | > 1000 | > 1000 |  | CNC(=O)c1ncccc1Nc1nc(Nc2ccc(N3CCN(C(=O)NC4CCC(NCCOCCC#Cc5cccc6c5CN(C5CCC(=O)NC5=O)C6=O)CC4)CC3)cc2)ncc1Cl (stereo not shown) [UB-181128] |
| 10 to 100 | 100 to 1000 | > 1000 | > 1000 |  | CNC(=O)c1ncccc1Nc1nc(Nc2ccc(N3CCN(C(=O)NC4CCC(NCCOCCC#Cc5ccc6c(c5)CN(C5CCC(=O)NC5=O)C6=O)CC4)CC3)cc2)ncc1Cl (stereo not shown) [UB-181129] |
| < 10 | 100 to 1000 | 100 to 1000 | 100 to 1000 |  | N#Cc1ccccc1Nc1nc(Nc2ccc(N3CCN(C(=O)N[C@H]4CC[C@@H](NCCOCCC#Cc5cccc6c5CN(C5CCC(=O)NC5=O)C6=O)CC4)CC3)cc2)ncc1Cl (stereo partly shown) [UB-181132] |
| 10 to 100 | 100 to 1000 | > 1000 | 100 to 1000 |  | N#Cc1ccccc1Nc1nc(Nc2ccc(N3CCN(C(=O)N[C@H]4CC[C@@H](NCCOCCC#Cc5ccc6c(c5)CN(C5CCC(=O)NC5=O)C6=O)CC4)CC3)cc2)ncc1Cl (stereo partly shown) [UB-181133] |
| 10 to 100 | > 1000 | > 1000 | > 1000 |  | N#Cc1ccccc1Nc1nc(Nc2ccc(C3CCN(C(=O)N[C@H]4CC[C@@H](NCCOCCC#Cc5cccc6c5CN(C5CCC(=O)NC5=O)C6=O)CC4)CC3)cc2)ncc1Cl (stereo partly shown) [UB-181134] |
| 10 to 100 | > 1000 | > 1000 | > 1000 |  | N#Cc1ccccc1Nc1nc(Nc2ccc(C3CCN(C(=O)N[C@H]4CC[C@@H](NCCOCCC#Cc5ccc6c(c5)CN(C5CCC(=O)NC5=O)C6=O)CC4)CC3)cc2)ncc1Cl (stereo partly shown) [UB-181135] |
| < 10 | 100 to 1000 | 100 to 1000 | 100 to 1000 |  | CS(=O)(=O)c1ccccc1Nc1nc(Nc2ccc(C3CCN(C(=O)N[C@H]4CC[C@H](NCCOCCC#Cc5cccc6c5CN(C5CCC(=O)NC5=O)C6=O)CC4)CC3)cc2)ncc1Cl (stereo partly shown) [UB-181139] |
| < 10 | 100 to 1000 | 100 to 1000 | 100 to 1000 |  | CS(=O)(=O)c1ccccc1Nc1nc(Nc2ccc(C3CCN(C(=O)N[C@H]4CC[C@@H](NCCOCCC#Cc5ccc6c(c5)CN(C5CCC(=O)NC5=O)C6=O)CC4)CC3)cc2)ncc1Cl (stereo partly shown) [UB-181140] |
| 10 to 100 |  | 100 to 1000 | 100 to 1000 | 100 to 1000 | CC[C@@H]1C(=O)N(C)c2cnc(Nc3ccc(C(=O)NC4CCN(CCOCCN(C)CC(=O)Nc5cccc6c5CN(C5CCC(=O)NC5=O)C6=O)CC4)cc3)nc2N1C1CCCC1 (stereo partly shown) [UB-181143] |
| < 10 |  | 10 to 100 | 10 to 100 | 10 to 100 | CC[C@@H]1C(=O)N(C)c2cnc(Nc3ccc(C(=O)N[C@H]4CC[C@H](NCCOCCC#Cc5cccc6c5CN(C5CCC(=O)NC5=O)C6=O)CC4)cc3)nc2N1C1CCCC1 (stereo partly shown) [UB-181144] |
| < 10 | > 1000 | > 1000 | > 1000 |  | CC(=O)c1ccccc1Nc1nc(Nc2ccc(C3CCN(C(=O)N[C@H]4CC[C@H](NCCOCCC#Cc5cccc6c5CN(C5CCC(=O)NC5=O)C6=O)CC4)CC3)cc2)ncc1Cl (stereo partly shown) [UB-181146] |
| < 10 | 100 to 1000 | 100 to 1000 | 100 to 1000 |  | NC(=O)c1ccccc1Nc1nc(Nc2ccc(C3CCN(C(=O)N[C@H]4CC[C@H](NCCOCCC#Cc5cccc6c5CN(C5CCC(=O)NC5=O)C6=O)CC4)CC3)cc2)ncc1Cl (stereo partly shown) [UB-181147] |
| < 10 | 100 to 1000 | > 1000 | > 1000 |  | CC(=O)c1ccccc1Nc1nc(Nc2ccc(C3CCN(C(=O)N[C@H]4CC[C@H](NCCOCCC#Cc5ccc6c(c5)CN(C5CCC(=O)NC5=O)C6=O)CC4)CC3)cc2)ncc1Cl (stereo partly shown) [UB-181151] |
| < 10 | 100 to 1000 | 100 to 1000 | 100 to 1000 |  | NC(=O)c1ccccc1Nc1nc(Nc2ccc(C3CCN(C(=O)NC4CCC(NCCOCCC#Cc5ccc6c(c5)CN(C5CCC(=O)NC5=O)C6=O)CC4)CC3)cc2)ncc1Cl (stereo not shown) [UB-181152] |
